{
  "source": "patent EP4378448B1",
  "about": "“EXTRACT OF FLOWERS, LEAVES AND/OR SEED PODS OF IMPATIENS AND LEAVES OF PANDANUS, IN DRIED AND LIQUID FORM, A METHOD OF ITS OBTAINING AND USE THEREOF” (PBCLABS Sp. z o.o., priority 2022, dated 2024)",
  "type_in_all_cases": "biochemical",
  "key": {"[1]": {"target": "T1, porcine pancreatic elastase (Sus scrofa, UniProt P00772)", "T1 construct": "purchased Sigma-Aldrich", "T1 sequence (P00772 27-266)": "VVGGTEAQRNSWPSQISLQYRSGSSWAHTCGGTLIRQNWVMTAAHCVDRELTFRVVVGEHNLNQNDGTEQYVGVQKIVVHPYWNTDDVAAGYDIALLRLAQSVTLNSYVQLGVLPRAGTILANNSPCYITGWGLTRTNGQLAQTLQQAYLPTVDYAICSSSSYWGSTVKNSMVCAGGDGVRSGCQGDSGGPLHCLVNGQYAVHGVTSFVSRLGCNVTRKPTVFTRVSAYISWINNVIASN", "assay": "Inhibition of elastase activity (AAAPVN substrate)", "conditions": "100 µg/mL (extract in glycerol; EGCG standard at 100 µg/mL)", "experimental": "The method using porcine pancreatic elastase (PE - E.C.3.4.21.36; Sigma-Aldrich) was used for the study, which was dissolved in distilled water to prepare a stock solution with a concentration of 3.33 mg/mL. The substrate […] (AAAPVN; Sigma-Aldrich) was dissolved in 1.6 mM Tris-HCl buffer (pH 8.0). The extract of Example 1 dissolved in glycerol (concentrations of 5-100 µg/mL) was incubated with the enzyme for 15 minutes before adding the substrate to start the reaction. The final reaction mixture in the well of the 96-well plate (total volume 200 µL) contained buffer, 0.8 mM of AAAPVN, 1 µg/mL of elastase and 25 µL of extract at the appropriate concentration. Epigallocatechin gallate (EGCG; Supelco) at the concentration of 100 µg/mL was used as a standard. Negative controls were performed using water. Absorbance values were measured immediately after substrate addition and then after 20 minutes at wavelength of λ=410 nm."}, "[2]": {"tested_on": "collagenase from Clostridium haemolyticum", "assay": "Inhibition of collagenase activity (FALGPA substrate)", "conditions": "100 µg/mL (extract in glycerol; EGCG standard at 100 µg/mL)", "experimental": "The enzymatic method for the determination of collagenase (EC 3.4.24.3) using FALGPA (N-(3-[2-furyl]acryloyl)-Leu-Gly-Pro-Ala) as substrate for collagenase, which was dissolved in 50 mM Tricine buffer (pH 7.5) at an initial concentration of 0.8 U/mL, was used for the study. FALGPA was dissolved in Tricine buffer to 2 mM. Various concentrations were prepared from the lyophilised extract of Example 1 by dissolving in glycerol and incubating with the enzyme for 15 minutes before adding the substrate to start the reaction. The final reaction mixture (150 µL) contained Tricine buffer, 0.8 mM of FALGPA, 0.1 U of collagenase and the extract at appropriate concentration. Epigallocatechin gallate (EGCG; Supelco) at the concentration of 100 µg/mL was used as a standard. The absorbance at wavelength of λ=345 nm was measured immediately after substrate addition and then continuously for 20 minutes."}, "soybean lipoxygenase": {"target": "T2, soybean lipoxygenase (Glycine max, UniProt P08170)", "T2 construct": "purchased Sigma-Aldrich Chemie GmbH, Steinheim, Germany", "T2 sequence (P08170 1-839)": "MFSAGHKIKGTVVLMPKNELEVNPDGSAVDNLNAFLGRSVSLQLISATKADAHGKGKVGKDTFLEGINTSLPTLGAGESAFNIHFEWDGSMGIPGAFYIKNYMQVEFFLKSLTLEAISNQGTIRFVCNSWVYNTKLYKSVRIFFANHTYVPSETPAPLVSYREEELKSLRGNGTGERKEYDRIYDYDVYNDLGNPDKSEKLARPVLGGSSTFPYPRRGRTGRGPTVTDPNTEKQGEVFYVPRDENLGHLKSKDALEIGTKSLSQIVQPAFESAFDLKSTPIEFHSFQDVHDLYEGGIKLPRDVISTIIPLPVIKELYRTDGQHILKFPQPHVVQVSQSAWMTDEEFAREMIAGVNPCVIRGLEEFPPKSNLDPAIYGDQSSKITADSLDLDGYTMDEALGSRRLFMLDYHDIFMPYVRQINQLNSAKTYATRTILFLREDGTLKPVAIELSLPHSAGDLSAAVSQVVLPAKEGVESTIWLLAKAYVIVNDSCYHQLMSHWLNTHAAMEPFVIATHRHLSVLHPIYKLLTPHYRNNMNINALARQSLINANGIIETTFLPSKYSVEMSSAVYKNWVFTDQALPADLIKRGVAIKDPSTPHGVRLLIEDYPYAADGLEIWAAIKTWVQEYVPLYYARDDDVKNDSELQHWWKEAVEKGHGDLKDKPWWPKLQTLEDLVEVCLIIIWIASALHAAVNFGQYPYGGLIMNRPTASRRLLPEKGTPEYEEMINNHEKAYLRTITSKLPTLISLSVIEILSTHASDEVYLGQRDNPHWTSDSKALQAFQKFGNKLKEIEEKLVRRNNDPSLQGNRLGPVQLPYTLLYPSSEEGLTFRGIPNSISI", "assay": "Anti-inflammatory properties, lipoxygenase inhibition", "conditions": "positive control, concentration not given", "experimental": "The study of anti-inflammatory activity of the extract of Example 1 was assessed on the basis of lipoxygenase inhibition using a spectrophotometric method in 96-well plates. For this purpose, 100 µL of various concentrations of extract solution in potassium phosphate buffer (pH = 8.5), 50 µL of soybean lipoxygenase solution (LOX; 167 U/mL; Sigma-Aldrich Chemie GmbH, Steinheim, Germany) in potassium phosphate buffer (pH = 8.5), and finally 50 µL of linoleic acid solution (LA; 134 µM; Sigma-Aldrich Chemie GmbH, Steinheim, Germany) were added to the wells. Changes in absorbance at 234 nm were then measured for a period of 25 minutes with intervals of 30 seconds. Indomethacin (Sigma-Aldrich) was used as a positive control. The activity of the extract was calculated as the percentage of LOX enzyme activity (% of activity) in relation to the maximal activity (negative control - solution without studied extract) after subtracting the absorbance of the extract at 234 nm in all cases. Absorbance values at the 10th minute of the reaction were used for the calculations."}, "fungal tyrosinase": {"tested_on": "fungal tyrosinase", "assay": "Inhibition of fungal tyrosinase activity (L-DOPA substrate)", "conditions": "standard at 100 µL/mL", "description": "The tyrosinase (EC 1.14.18.1, 25 KU, fungal tyrosinase, Sigma-Aldrich) inhibitory effect was measured using L-3,4-dihydroxyphenylalanine (L-DOPA, Supelco) as a substrate. To perform it, various concentrations of the studied extract (20 µL), tyrosinase solution (200 U/mL, 40 µL) and phosphate buffer (100 µL, 50 mM, pH 6.5) were applied to a 96-well plate, and then incubated for 15 minutes at 25°C. The reaction was started with the addition of L-DOPA (40 µL) and incubated for a further 15 minutes, after which the absorbance was measured at wavelength of λ=475 nm compared to the control without the inhibitor. In the control sample, representing 100% of enzyme activity, phosphate buffer was added instead of the extract. Tyrosinase inhibitory activity was determined by comparing the enzyme activity in samples with and without the assessed inhibitor. Kojic acid (Supelco) at a concentration of 100 µL/mL was used as a standard."}},
  "data": [
    {"compound": "O=C(O[C@@H]1Cc2c(O)cc(O)cc2O[C@@H]1c1cc(O)c(O)c(O)c1)c1cc(O)c(O)c(O)c1", "note": "[EGCG, Epigallocatechin gallate]", "values": [
      {"measurement": "inhibition at 100 µg/mL", "setting": "[1]", "result": 92.2, "unit": "%"},
      {"measurement": "Collagenase inhibition (%)", "setting": "[2]", "result": 84.45, "unit": "%"}
    ]},
    {"compound": "COc1ccc2c(c1)c(CC(=O)O)c(C)n2C(=O)c1ccc(Cl)cc1", "note": "[Indomethacin]", "values": [
      {"measurement": "Inhibition of LOX activity [%]", "setting": "soybean lipoxygenase", "result": 99.80, "unit": "%"}
    ]},
    {"compound": "O=c1cc(CO)occ1O", "note": "[kojic acid]", "values": [
      {"measurement": "Tyrosinase inhibition [%]", "setting": "fungal tyrosinase", "result": 61.17, "unit": "%"}
    ]}
  ]
}
